# Experimental data as given in US20240025906A1 (NEURON23, INC., priority 2022, published 2024).
# Like-named read-outs stand apart in the source and are kept apart here.
# Key:
# TYK2 JH2 = molecular target: T1, TYK2 JH2 (Homo sapiens, UniProt P29597); experiment: TYK2 JH2 binding assay (KINOMEscan KdELECT competitive binding); settings: TYK2 JH2 domain, DiscoverX KINOMEscan KdELECT (Assay A); read-out: Biochemical TYK2_DiscoverX_JH2_BND_Kd
# T1 construct: purchased DiscoverX (KINOMEscan KdELECT service); host or cells: E. coli BL21-derived (T7 phage display) or HEK-293
# Summary of the method: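 Kd values come from qPCR measurement of kinase retained on an immobilized-ligand resin after 1 h room-temperature competition with compound in an 11-point, 3-fold series.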
# [1] = tested on: JAK1/TYK2 pSTAT5 (Tyr694/699) in THP-1 cell line; experiment: IFNa-stimulated JAK1/TYK2 pSTAT5 (Tyr694/699) inhibition cellular assay, AlphaLISA; assay type: cell-based; settings: THP-1 cells, IFNa-stimulated, AlphaLISA (Assay B), read-out: Cellular_THP1_IFNa-pSTATS_TYK2
# Summary of the method: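 THP-1, 2e4 cells/well, HBSS; cpd 1 h 37 °C (10000–0.04 nM final, 6-fold, 8 pt); IFNa 100 ng/mL added, 30 min; lyse, freeze −80 °C; pSTAT5 AlphaLISA, 615 nm; 4PL IC50, bottom fixed 0, slope −1.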
# T1 sequence (P29597 589-875 limits assumed): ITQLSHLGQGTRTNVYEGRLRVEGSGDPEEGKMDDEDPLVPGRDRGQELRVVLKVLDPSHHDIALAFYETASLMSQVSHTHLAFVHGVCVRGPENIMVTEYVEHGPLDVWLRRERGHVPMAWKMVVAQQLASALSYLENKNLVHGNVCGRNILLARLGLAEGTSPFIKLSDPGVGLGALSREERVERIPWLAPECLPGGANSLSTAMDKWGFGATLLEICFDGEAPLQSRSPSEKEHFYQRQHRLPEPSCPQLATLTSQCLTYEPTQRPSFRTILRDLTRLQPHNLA
SMILES,Kd (TYK2 JH2) [nM],IC50 ([1]; Homo sapiens) [nM],IC50 [1] [nM]
"CNc1ncc(-c2nc3ccc(N4CCO[C@H](C)C4)cn3n2)c2cc(NC(=O)[C@H]3C[C@H]3F)ncc12 [Example 548, (1R,2R)-2-fluoro-N-(8-(methylamino)-5-(6-((R)-2-methylmorpholino)-[1,2,4]triazolo[1,5-a]pyridin-2-yl)-2,7-naphthyridin-3-yl)cyclopropane-1-carboxamide]",≤ 100,≤ 500,
"CNc1ncc(-c2nc3ccc(N4CCO[C@H](C)C4)cn3n2)c2cc(NC(=O)[C@@H]3C[C@@H]3F)ncc12 [Example 549, (1S,2S)-2-fluoro-N-(8-(methylamino)-5-(6-((R)-2-methylmorpholino)-[1,2,4]triazolo[1,5-a]pyridin-2-yl)-2,7-naphthyridin-3-yl)cyclopropane-1-carboxamide]",≤ 100,≤ 500,
"CNc1ncc(-c2nc3ccc(N4CCO[C@H](C)C4)cn3n2)c2cc(NC(=O)C3(F)CC3)ncc12 [Example 550, (R)-1-fluoro-N-(8-(methylamino)-5-(6-(2-methylmorpholino)-[1,2,4]triazolo[1,5-a]pyridin-2-yl)-2,7-naphthyridin-3-yl)cyclopropane-1-carboxamide]",≤ 100,≤ 500,
"CNc1ncc(-c2nc3ccc(N4CCO[C@H](C)C4)cn3n2)c2cc(Nc3ccccn3)ncc12 [Example 551, (R)—N^1-methyl-4-(6-(2-methylmorpholino)-[1,2,4]triazolo[1,5-a]pyridin-2-yl)-N^6-(pyridin-2-yl)-2,7-naphthyridine-1,6-diamine]",≤ 100,≤ 500,
"CNc1ncc(-c2nc3ccc(N4CCO[C@H](C)C4)cn3n2)c2cc(NC(=O)NC3CC3)ncc12 [Example 552, (R)-1-cyclopropyl-3-(8-(methylamino)-5-(6-(2-methylmorpholino)-[1,2,4]triazolo[1,5-a]pyridin-2-yl)-2,7-naphthyridin-3-yl)urea]",≤ 100,≤ 500,
"CNc1ncc(-c2nc3ccc(N4C[C@@H](C)O[C@@H](C)C4)cn3n2)c2cc(N)ncc12 [Example 553, 4-(6-((2R,6S)-2,6-dimethylmorpholino)-[1,2,4]triazolo[1,5-a]pyridin-2-yl)-N^1-methyl-2,7-naphthyridine-1,6-diamine]",≤ 100,> 500,
"CNc1ncc(-c2nc3ccc(N4C[C@@H](C)O[C@@H](C)C4)cn3n2)c2cc(NC(=O)[C@@H]3C[C@@H]3F)ncc12 [Example 554, (1S,2S)—N-(5-(6-((2R,6S)-2,6-dimethylmorpholino)-[1,2,4]triazolo[1,5-a]pyridin-2-yl)-8-(methylamino)-2,7-naphthyridin-3-yl)-2-fluoracyclopropane-1-carboxamide]",≤ 100,,≤ 500
"CNc1ncc(-c2nc3ccc(N4C[C@@H](C)O[C@@H](C)C4)cn3n2)c2cc(NC(=O)[C@H]3C[C@H]3C)ncc12 [Example 555, (1S,2R)-N-(5-(6-((2R,6S)-2,6-dimethylmorpholino)-[1,2,4]triazolo[1,5-a]pyridin-2-yl)-8-(methylamino)-2,7-naphthyridin-3-yl)-2-methylcyclopropane-1-carboxamide]",≤ 100,≤ 500,
"CNc1ncc(-c2nc3ccc(N4C[C@@H](C)O[C@@H](C)C4)cn3n2)c2cc(NC(=O)CC(F)(F)F)ncc12 [Example 556, N-(5-(6-((2R,6S)-2,6-dimethylmorpholino)-[1,2,4]triazolo[1,5-a]pyridin-2-yl)-8-(methylamino)-2,7-naphthyridin-3-yl)-3,3,3-trifluoropropanamide]",≤ 100,≤ 500,
"CNc1ncc(-c2nc3ccccn3n2)c2cc(Nc3ccccn3)ncc12 [Example 557, 4-([1,2,4]triazolo[1,5-a]pyridin-2-yl)-N^1-methyl-N^6-(pyridin-2-yl)-2,7-naphthyridine-1,6-diamine]",≤ 100,≤ 500,
"CNc1ncc(-c2nc3ccc(N4CCC(F)(F)CC4)cn3n2)c2cc(NC(=O)[C@H]3C[C@H]3C)ncc12 [Example 558, (1S,2R)—N-(5-(6-(4,4-difluoropiperidin-1-yl)-[1,2,4]triazolo[1,5-a]pyridin-2-yl)-8-(methylamino)-2,7-naphthyridin-3-yl)-2-methylcyclopropane-1-carboxamide]",≤ 100,≤ 500,
"CNc1ncc(-c2nc3ccc(N4CC5CN(C)CC(C4)O5)cn3n2)c2cc(NC(=O)C3(F)CC3)ncc12 [Example 559, 1-fluoro-N-(5-(6-(7-methyl-9-oxa-3,7-diazabicyclo[3.3.1]nonan-3-yl)-[1,2,4]triazolo[1,5-a]pyridin-2-yl)-8-(methylamino)-2,7-naphthyridin-3-yl)cyclopropane-1-carboxamide]",≤ 100,≤ 500,
"CNc1ncc(-c2nc3ccc(N4CC5CN(C)CC(C4)O5)cn3n2)c2cc(NC(=O)[C@H]3C[C@H]3C)ncc12 [Example 560, (1S,2R)-2-methyl-N-(5-(6-(7-methyl-9-oxa-3,7-diazabicyclo[3.3.1]nonan-3-yl)-[1,2,4]triazolo[1,5-a]pyridin-2-yl)-8-(methylamino)-2,7-naphthyridin-3-yl)cyclopropane-1-carboxamide]",≤ 100,≤ 500,

# More lines, now with the values ahead:
Kd (TYK2 JH2) [nM],IC50 ([1]; Homo sapiens) [nM],IC50 [1] [nM],SMILES
≤ 100,≤ 500,,"CNc1ncc(-c2nc3ccc(N4CCO[C@@H](C)C4)cn3n2)c2cc(NC(=O)C3(F)CC3)ncc12 [Example 540, (S)-1-fluoro-N-(8-(methylamino)-5-(6-(2-methylmorpholino)-[1,2,4]triazolo[1,5-a]pyridin-2-yl)-2,7-naphthyridin-3-yl)cyclopropane-1-carboxamide]"
≤ 100,≤ 500,,"CNc1ncc(-c2nc3ccc(N4CCO[C@@H](C)C4)cn3n2)c2cc(Nc3ccccn3)ncc12 [Example 543, (S)—N^1-methyl-4-(6-(2-methylmorpholino)-[1,2,4]triazolo[1,5-a]pyridin-2-yl)-N^6-(pyridin-2-yl)-2,7-naphthyridine-1,6-diamine]"
≤ 100,≤ 500,,"CNc1ncc(-c2nc3ccc(N4CCO[C@@H](C)C4)cn3n2)c2cc(Nc3cc(C)n(C)n3)ncc12 [Example 544, (S)—N^6-(1,5-dimethyl-1H-pyrazol-3-yl)-N^1-methyl-4-(6-(2-methylmorpholino)-[1,2,4]triazolo[1,5-a]pyridin-2-yl)-2,7-naphthyridine-1,6-diamine]"
≤ 100,≤ 500,,"CNc1ncc(-c2nc3ccc(N4CCO[C@@H](C)C4)cn3n2)c2cc(Nc3ccn(C)n3)ncc12 [Example 545, (S)—N^1-methyl-N^6-(1-methyl-1H-pyrazol-3-yl)-4-(6-(2-methylmorpholino)-[1,2,4]triazolo[1,5-a]pyridin-2-yl)-2,7-naphthyridine-1,6-diamine]"
≤ 100,≤ 500,,"CNc1ncc(-c2nc3ccc(N4CCO[C@H](C)C4)cn3n2)c2cc(NC(=O)[C@@H]3C[C@@H]3C)ncc12 [Example 546, (1R,2S)-2-methyl 1N-(8-(methylamino)-5-(6-((R)-2-methylmorpholino)-[1,2,4]triazolo[1,5-a]pyridin-2-yl)-2,7-naphthyridin-3-yl)cyclopropane-1-carboxamide]"
≤ 100,≤ 500,,"CNc1ncc(-c2nc3ccc(N4CCO[C@H](C)C4)cn3n2)c2cc(NC(=O)[C@H]3C[C@H]3C)ncc12 [Example 547, (1S,2R)-2-methyl-N-(8-(methylamino)-5-(6-((R)-2-methylmorpholino)-[1,2,4]triazolo[1,5-a]pyridin-2-yl)-2,7-naphthyridin-3-yl)cyclopropane-1-carboxamide]"
